The source of these data is patent publication US20050277586A1, “Peptide chemically modified with polyethylene glycol” (priority 2002, published 2005).

Data set [1] can be described thus: Measurement of turbidity in BSA (absorbance at 600 nm). The class given is physicochemical. Conditions: 1% BSA, peptide 50 μM. As for the experimental part:
The solutions were evaluated for their absorbance at a wavelength of 600 nm by using a spectrophotometer (DU640, manufactured by Beckman).

The test system of data set [2] is Vero cell, T24 cell, A549 cell. The data set can be described thus: Nucleic acid-introducing ability, luciferase-expressing plasmid (procedure of Example 9). The class given is cell-based. Conditions: for Nucleic acid-introducing ability: luciferase plasmid 1 μg/mL, highest count of peptide 1.25, 2.5 or 5 μM, cell line not stated. An excerpt:
A cell line established from monkey kidney (Vero cell) and a human bladder cancer cell (T24 cell) purchased from American Type Culture Collection (ATCC) and human lung cancer cell (A549 cell) purchased from Dainippon Pharmaceutical were inoculated on a 24 well culture plate (manufactured by NALGEN NUNC) at 1×10^5 cells/well. Vero cell and A549 cell were cultivated in DMEM (manufactured by Life Technologies Oriental) supplemented with 10% fetal bovine serum (hereinafter referred to as FBS, manufactured by NICHIREI), and T24 cell was cultivated in McCoy's 5a (manufactured by Life Technologies Oriental) supplemented with 10% FBS in 5% CO2 atmosphere at 37° C. for 24 hours. After removing the medium, opti-MEM (manufactured by Life Technologies Oriental) prepared to have the concentration of the luciferase-expressing plasmid prepared in Example 7 of 1 μg/mL and the concentration of the peptide prepared in Example 1 of 1.25, 2.5, or 5 μM was added, and the cells were cultivated for 5 hours. Next, in the case of Vero cell and A549 cell, the culture medium was replaced with DMEM supplemented with 10% FBS, and in the case of T24 cell, the medium was replaced with McCoy's 5a supplemented with 10% FBS, and cultivation was continued in 5% CO2 atmosphere and at 37° C. for another 24 hours. The luciferase activity expressed in the cell was then measured by the method instructed in luciferase assay system (manufactured by Promega). To be more specific, the cells were washed with phosphate-buffered saline (hereinafter referred to as PBS, manufactured by SIGMA), and the cells were lyzed with Passive Lysis Buffer attached to the kit.
20 μL of this cell lysate and 100 μL of the Luciferase Assay Reagent II attached to the kit was added to a fluorescence-measuring plate (Microlite™ 1 plate, manufactured by Dynatech), and after mixing, fluorescence was measured for 1 second by using a multilabel counter (ARVO™ SY1420 MULTILABEL COUNTER, manufactured by Wallac Beltold.
Concentration of the protein in the cell lysate was measured by mixing 8 μL of the cell lysate and 200 μL of the protein assay solution (manufactured by Biorad) with 792 μL of ultrapure water in a disposable cuvette (UV fluorescent cuvette A204X, manufactured by Funakoshi), allowing the mixture to stand for 5 minutes at room temperature, and measuring the absorption at 595 nm with a spectrophotometer (DU640, manufactured by Beckman). Bovine serum albumin (BSA) was used for the standard protein. By using the thus obtained results, count per 1 second per 1 mg of protein of the cell lysate was calculated to thereby use the count as the luciferase activity, and the highest count in the three conditions of different peptide concentration was designated the gene-introducing ability of the peptide.

Data set [3] has as its target phosphatidyl serine (binding of human Factor VIII). The data set can be described thus: Affinity for phosphatidyl serine (EIA, inhibition of human Factor VIII binding). Conditions: for IC50: in the presence of 5% BSA, human Factor VIII 1 μg/mL. As for the experimental part:
The specific affinity of the peptide for phosphatidyl serine was evaluated by measuring activity of the peptide for inhibiting the binding of the human Factor VIII to phosphatidyl serine by using human Factor VIII which is known to bind to phosphatidyl serine but not to phosphatidyl choline in the presence of serum albumin. To be more specific, 100 μL of ethanol solution containing 10 μg/mL of phospholipids at a phosphatidyl serine (manufactured by SIGMA): phosphatidyl choline (manufactured by SIGMA) ratio of 3:7 was added to the wells of a 96 well plate (Immulon I, manufactured by Dynatech), and exsiccated by using a centrifugal evaporator (EC-95C, manufactured by Sakuma Seisakusho) at 40° C. for 40 minutes. 200 μL each of TBS (10 mM Tris-HCl (pH 7.4) containing 1% bovine serum albumin (BSA Fraction V, hereinafter referred to as BSA, manufactured by Seikagaku Corporation) and 0.9% (W/V) NaCl solution were added to each well, and the wells were blocked by allowing the plate to stand at 37° C. for 2.5 hours. After washing the plate with water, 100 μL of TBS solution supplemented with 5% BSA mixed with human Factor VIII (manufactured by American Diagnostica) at a final concentration 1 μg/mL and the peptide of predetermined dose prepared in Example 1 was added to each well, and the reaction was allowed to take place at 4° C. for 24 hours.
After the completion of the reaction, the human Factor VIII that became bound to the phosphatidyl serine was measured by enzyme immunoassay (EIA) in accordance with the general procedure described in a book (“Enzyme Immunoassay (3rd ed.)”, Eiji Ishikawa et al., Igaku-Shoin, 1987). To be more specific, the measurement was conducted by using anti-human Factor VIII mouse monoclonal antibody (ESH8, manufactured by American Diagnostica) for the primary antibody, horseradish peroxidase-labeled anti-mouse IgG antibody (P0260, manufactured by Daco) for the secondary antibody, and tetramethylbenzidine for the chromogenic substrate, and measuring the absorption at a wavelength of 450 nm by using a reference wavelength of 630 nm on a spectrophotometer (NJ-2100, manufactured by Intermed).
Intensity of the affinity of the peptide for the phosphatidyl serine was evaluated by using the value obtained by subtracting the absorption of the well having no human Factor VIII added thereto from the absorption of the well having only the human Factor VIII added thereto as the control value (100%), and designating the peptide concentration at which the value 0.5 was obtained when the value obtained by subtracting the absorption of the well having only the peptide added thereto from the absorption of the well having a mixture of the human Factor VIII and the peptide added thereto were divided by the control value as the IC50 value, and evaluating the intensity to be ++ when the IC50 value was up to 1 μM, and + when the intensity was more than 1 μM but not more than 10 μM. It is to be noted that the specific affinity was evaluated to be none when the intensity was 10 μM or more.

In the case of “TRYLRIHPRSWVHQIRLRLRYLRIHPRSWVHQIRLRS [SEQ ID NO: 3]”, in data set [1], the OD 600 was less than 0.01. Further, the Nucleic acid-introducing ability in data set [2] was 2+ (100,000 to less than 1,000,000). For the same substance, the half-maximal inhibitory concentration (IC50) in data set [3] is less than 1 µM.

With “SEQ ID NO: 20: SEQ ID NO: 1 with three locations in the 18 amino acid sequence substituted (TRYLRLHPRSWVHQLALRTRYLRLHPRSWVHQLALRS)”, in data set [2], the Nucleic acid-introducing ability was 4+ (10,000,000 to less than 100,000,000).

The substance “TRYLRIRPRSWVRQIALRLRYLRIRPRSWVRQIALRS [SEQ ID NO: 15]” returned an OD 600 in data set [1] of less than 0.01. The Nucleic acid-introducing ability in data set [2] is 2+ (100,000 to less than 1,000,000). In data set [3], the IC50 was less than 1 µM.

In the case of “SEQ ID NO: 9: SEQ ID NO: 1 with one or two locations in the 18 amino acid sequence substituted (TRYLRIHPRSWVHQIALRTRYLRIHPRSWVHQIALRS)”, the Nucleic acid-introducing ability in data set [2] is reported as 3+ (1,000,000 to less than 10,000,000).

Take “SEQ ID NO: 12: SEQ ID NO: 1 with one or two locations in the 18 amino acid sequence substituted (TRYLRIHPRSWVHQIALSLRYLRIHPRSWVHQIALSS)”: in data set [2], the Nucleic acid-introducing ability was 2+ (100,000 to less than 1,000,000).

For “SEQ ID NO: 18: SEQ ID NO: 1 with one or two locations in the 18 amino acid sequence substituted (TRYLRIHPRSWLHQIALRTRYLRIHPRSWLHQIALRS)”, the Nucleic acid-introducing ability in data set [2] is recorded as 4+ (10,000,000 to less than 100,000,000).

On to “TRYLRIHPRSWVHQIALKLKYLRIHPRSWVHQIALRS [SEQ ID NO: 7]”, for which, in data set [1], the OD 600 is less than 0.01. Besides, the Nucleic acid-introducing ability in data set [2] is recorded as 2+ (100,000 to less than 1,000,000). Also, in data set [3], the IC50 lay in the range of 1 to 10 µM.

As to “SEQ ID NO: 14: SEQ ID NO: 1 with one or two locations in the 18 amino acid sequence substituted (TRYLRIHPRSWSHQIALRLRYLRIHPRSWSHQIALRS)”, in data set [2], the Nucleic acid-introducing ability is on record as 3+ (1,000,000 to less than 10,000,000).

In data set [1], “TRYLRIHPRLWVHQIALRLRYLRIHPRLWVHQIALRS [SEQ ID NO: 11]” showed an OD 600 of less than 0.01. In data set [2], the Nucleic acid-introducing ability is listed as 3+ (1,000,000 to less than 10,000,000). The IC50 in data set [3] was in the range of 1 to 10 µM.

Substance “TRYLRIHPKSWVHQIALRLRYLKIHPRSWVHQIALRS [SEQ ID NO: 8]” came in with an OD 600 in data set [1] of less than 0.01. The Nucleic acid-introducing ability in data set [2] is listed as 3+ (1,000,000 to less than 10,000,000). Further, the half-inhibitory concentration (IC50) in data set [3] was in the range of 1 to 10 µM.

In turn, “TRSLRIHPRLWVHQIALRLRSLRIHPRLWVHQIALRS [SEQ ID NO: 17]” yielded an OD 600 in data set [1] of less than 0.01. In data set [2], the Nucleic acid-introducing ability is reported as 2+ (100,000 to less than 1,000,000). Also, the half-maximal inhibitory concentration (IC50) in data set [3] was less than 1 µM.

As for “TRYLRLHPRSWLHQLALRLRYLRLHPRSWLHQLALRS [SEQ ID NO: 19]”, the OD 600 in data set [1] is less than 0.01. Further, the Nucleic acid-introducing ability in data set [2] was 4+ (10,000,000 to less than 100,000,000). Besides, the IC50 in data set [3] is less than 1 µM.

“TRSLRIHPRSWVHQIALRLRSLRIHPRSWVHQIALRS [SEQ ID NO: 10]” registered an OD 600 in data set [1] of less than 0.01. The Nucleic acid-introducing ability in data set [2] is on record as 3+ (1,000,000 to less than 10,000,000). Besides, the IC50 in data set [3] was in the range of 1 to 10 µM.

With Polylysine [reference compound], the “OD 600” value in data set [1] is listed as not below 1. The “Affinity for phosphatidyl serine” value in data set [3] (procedure of Example 20) was “no affinity for phosphatidyl serine”.

On to “SEQ ID NO: 13: SEQ ID NO: 1 with one or two locations in the 18 amino acid sequence substituted (TRYLRIHPRSLVHQIALRLRYLRIHPRSLVHQIALRS)”, for which the Nucleic acid-introducing ability in data set [2] was 3+ (1,000,000 to less than 10,000,000).

On to “SEQ ID NO: 21: SEQ ID NO: 1 with three locations in the 18 amino acid sequence substituted (TKYLKIHPKSWVHQIALRLKYLKIHPKSWVHQIALRS)”, for which the Nucleic acid-introducing ability in data set [2] was 2+ (100,000 to less than 1,000,000).

For “SEQ ID NO: 24: deletion mutant of the peptide of SEQ ID NO: 4 (TLRYLRIHPRSWLHQIALRS)”, in data set [2], the Nucleic acid-introducing ability is given as 1+ (10,000 to less than 100,000). Further, the “Ability of introducing the nucleic acid into a cell” value in data set [2] (procedure of Example 9) is “had the ability of introducing the nucleic acid into a cell”.

On to “TRYLRIHPRSWVHNIALRLRYLRIHPRSWVHNIALRS [SEQ ID NO: 6]”, for which the OD 600 in data set [1] was less than 0.01. The Nucleic acid-introducing ability in data set [2] is listed as 2+ (100,000 to less than 1,000,000). For the same substance, in data set [3], the IC50 was less than 1 µM.

For the substance “TIHPRSWVHQIALRLRYLRIHPRSWVHQIAS [SEQ ID NO: 23]”, in data set [1], the OD 600 was less than 0.01. Moreover, in data set [2], the Nucleic acid-introducing ability is 2+ (100,000 to less than 1,000,000). The “Ability of introducing the nucleic acid into a cell” value in data set [2] (procedure of Example 9) is listed as “had the ability of introducing the nucleic acid into a cell”. Moreover, the half-inhibitory concentration (IC50) in data set [3] was less than 1 µM.

Take “SEQ ID NO: 22: SEQ ID NO: 1 with three locations in the 18 amino acid sequence substituted (TRRLRIHPRRWVHRIALRLRRLRIHPRRWVHRIALRS)”: the Nucleic acid-introducing ability in data set [2] is on record as 3+ (1,000,000 to less than 10,000,000).

Regarding “TRFLRIHPRSWVHQIALRLRFLRIHPRSWVHQIALRS [SEQ ID NO: 5]”, in data set [1], the OD 600 was less than 0.01. Further, in data set [2], the Nucleic acid-introducing ability is given as 2+ (100,000 to less than 1,000,000). In addition, in data set [3], the concentration for half-maximal inhibition (IC50) was less than 1 µM.

Take “SEQ ID NO: 26: SEQ ID NO: 1 with amino acid substitution so that it lacks the four sided 18 amino acid sequence (TRYLRIHPRSWVLQIALRLRYLRIHPRSWVLQIALRS) [reference compound]”: in data set [2] (procedure of Example 9), the “Ability of introducing the nucleic acid into a cell” value is reported as “no nucleic acid-introducing ability was found” and the “Fluorescent count per 1 mg of protein per 1 second” value is “less than 10,000 cps/mg protein”.

Regarding “TRYLRIHPRSWVRQIALRLRYLRIHPRSWVRQIALRS [SEQ ID NO: 2]”, the OD 600 in data set [1] is less than 0.01. For the same substance, the Nucleic acid-introducing ability in data set [2] is 3+ (1,000,000 to less than 10,000,000). Besides, the concentration for half-maximal inhibition (IC50) in data set [3] is less than 1 µM.

The term IC50 denotes the concentration needed to halve the response being measured.
